Test results reported in patent US6046218A, “Pyridine derivative and medicament containing the same as an effective ingredient” (SS Pharmaceutical Co., Ltd., priority 1996, dated 2000).
Where a name gives a salt, the structure may show the parent alone.

Columns and labels:
Format in all cases: cell-based
IL-4 production [1] = test: Test 2: inhibition of IL-4 production in human T-cell strain ATL-16T(-) stimulated with PMA (Bio Source EIA); settings: ATL-16T(-) 5×10^5 cells/0.5 ml/well, 20 nM PMA, 48 hours, read-out: Inhibition rate of IL-4 production; for inhibition at 10 µM: 10^-5 M; for inhibition at 1 µM: 10^-6 M; for inhibition at 0.1 µM: 10^-7 M; for inhibition at 0.01 µM: 10^-8 M
Protocol: Test 2: Test on the inhibition of IL-4 production
(§1) Into individual wells of a 48-well microplate, the human T-cell strain ATL-16T(-) was poured at a concentration of 5×10^5 cells/0.5 ml/well (n=3), followed by the addition of a stimulator (20 nM of PMA) and a medicament at the same time. The resulting mixture was incubated in 5% CO2 at 37° C. for 48 hours. After incubation, 50 μl of the supernatant were collected and subjected to measurement by a human IL-4 EIA kit (BIO SOURCE, INC.). The inhibition rate was calculated according to the following formula. [formula]

IL-5 production = test: Test 3: inhibition of IL-5 production in human PBMC stimulated with ConA; settings: 10^-6 M, 10 μg/ml ConA, 48 hours, read-out: Inhibition rate of IL-5 production
Protocol: Test 3: Test on the inhibition of IL-5 production
The peripheral blood was collected from a normal volunteer and peripheral blood mononuclear cells (PBMC) of the human peripheral blood were separated therefrom by the specific gravity centrifugation method. They were suspended in an AIM-V medium and their cell count was adjusted. To individual wells of a 96-well incubation plate, 1×10^6 cells/ml of PBMC were poured, followed by the addition of a stimulator (10 μg/ml of ConA) and a medicament. The resulting mixture was incubated in 5% CO2 at 37° C. for 48 hours. After incubation, 50 μl of the supernatant were collected and subjected to measurement by a human IL-5 EIA kit (BIO SOURCE, INC.). The inhibition rate was calculated according to the following formula. [formula]

IL-4 production [2] = test: Test 1: inhibition of IL-4 production in human T-cell strain ATL-16T(-) stimulated with PMA (R&D Systems EIA); settings: ATL-16T(-) 1×10^6 cells/0.5 ml/well, 20 nM PMA, 48 hours, read-out: Inhibition rate of IL-4 production; for inhibition at 10 µM: 10^-5 M; for inhibition at 1 µM: 10^-6 M; for inhibition at 0.1 µM: 10^-7 M; for inhibition at 0.01 µM: 10^-8 M
Protocol: Test 1: Test on the inhibition of IL-4 production
as §1, with “1×10^6” for “5×10^5”, “100” for “50”, “(R&D SYSTEMS,” for “(BIO SOURCE,”

Compound | inhibition at 10 µM (IL-4 production [1]) [%] | inhibition at 1 µM (IL-4 production [1]) [%] | inhibition at 0.1 µM (IL-4 production [1]) [%] | inhibition at 0.01 µM (IL-4 production [1]) [%] | inhibition at 1 µM (IL-5 production) [%] | inhibition at 10 µM (IL-4 production [2]) [%] | inhibition at 1 µM (IL-4 production [2]) [%] | inhibition at 0.1 µM (IL-4 production [2]) [%] | inhibition at 0.01 µM (IL-4 production [2]) [%]
CCOC(=O)CCCCCOc1cc(/C=C/C(=O)c2c(OC)cccc2OC)ncc1OC [Ex. 85, Ethyl 6-[5-methoxy-2-(3-(2,6-dimethoxyphenyl)-3-oxo-1-propenyl)-4-pyridyloxy]hexanoate hydrochloride] | 86.3 | 77.4 | 77.1 | 73.9 | 75.7 | – | – | – | –
COc1cnc(/C=C/C(=O)c2ccccc2[N+](=O)[O-])cc1OC [Ex. 51, 4,5-Dimethoxy-2-[3-(2-nitrophenyl)-3-oxo-1-propenyl]pyridine] | 102 | 20.5 | 30.1 | 26.3 | 93.6 | – | – | – | –
CCOC(=O)CCCCOc1cc(/C=C/C(=O)C2CCCCC2)ncc1OC [Ex. 78, Ethyl 5-[2-(3-cyclohexyl-3-oxo-1-propenyl)-5-methoxy-4-pyridyloxy]pentanoate hydrochloride] | 71.1 | 70.8 | 68.5 | 68.2 | 63.1 | – | – | – | –
COc1cnc(/C=C/C(=O)C2CCCCC2)cc1OC [Ex. 73, 2-(3-Cyclohexyl-3-oxo-1-propenyl)-4,5-dimethoxypyridine hydrochloride] | 86.9 | 51.3 | 21.4 | 11.9 | 82.3 | – | – | – | –
CCOC(=O)CCCOc1cc(/C=C/C(=O)c2ccncc2)ncc1OC [Ex. 72, Ethyl 4-[5-methoxy-2-(3-oxo-3-(4-pyridyl)-1-propenyl)-4-pyridyloxy]butanoate dih ydrochloride] | 75.4 | 73.7 | 69.1 | 68.8 | 84.1 | – | – | – | –
COc1cnc(/C=C/C(=O)c2c(Cl)cccc2Cl)cc1OC [Ex. 54, 4,5-Dimethoxy-2-[3-(2,6-dichlorophenyl)-3-oxo-1-propenyl]pyridine] | 101 | 98.7 | 24.2 | 6.1 | 93.3 | – | – | – | –
CCOC(=O)CCCOc1cc(/C=C/C(=O)C2CCCCC2)ncc1OC [Ex. 76, Ethyl 4-[2-(3-cyclohexyl-3-oxo-1-propenyl)-5-methoxy-4-pyridyloxy]butanoatehydrochloride] | 75.3 | 70.5 | 69.1 | 67.7 | 91.2 | – | – | – | –
COc1cnc(/C=C/C(=O)c2c(OC)cccc2OC)cc1O [Ex. 56, 4-Hydroxy-5-methoxy-2-[3-(2,6-dimethoxyphenyl)-3-oxo-1-propenyl]pyridine] | 101 | 53.7 | 47.1 | 42.1 | 79.8 | – | – | – | –
CCOC(=O)CCCOc1cc(/C=C/C(=O)c2cccnc2)ncc1OC [Ex. 71, Ethyl 4-[5-methoxy-2-(3-oxo-3-(3-pyridyl)-1-propenyl)-4-pyridyloxy]butanoate dih ydrochloride] | 81.2 | 69.1 | 68.6 | 61.9 | 93.3 | – | – | – | –
CCOC(=O)CCCCOc1cc(/C=C/C(=O)c2ccccc2OC)ncc1OC [Ex. 95, Ethyl 5-[5-methoxy-2-(3-(2-methoxyphenyl)-3-oxo-1-propenyl)-4-pyridyloxy]pentanoate hydrochloride] | 105 | 60.9 | 59.2 | 57.3 | 65.6 | – | – | – | –
CCOC(=O)CCCOc1cc(/C=C/C(=O)c2ccccn2)ncc1OC [Ex. 70, Ethyl 4-[5-methoxy-2-(3-oxo-3-(2-pyridyl)-1-propenyl]-4-pyridyloxy]butanoate dih ydrochloride] | 65.7 | 64.3 | 64 | 60 | 81.4 | – | – | – | –
CCOC(=O)CCCOc1cc(/C=C/C(=O)c2ccc(OC)cc2OC)ncc1OC [Ex. 91, Ethyl 4-[5-methoxy-2-(3-(2,4-dimethoxyphenyl)-3-oxo-1-propenyl)-4-pyridyloxy]butanoate hydrochloride] | 93.4 | 62.3 | 62.2 | 59.8 | 85.8 | – | – | – | –
COc1cnc(/C=C/C(=O)c2ccc(Cl)cc2Cl)cc1OC [Ex. 53, 4,5-Dimethoxy-2-[3-(2,4-dichlorophenyl)-3-oxo-1-propenyl]pyridine] | 105 | 103 | 16.7 | 23.1 | 75 | – | – | – | –
COc1cnc(/C=C/C(=O)C2CCCCC2)cc1OC1CCCC1 [Ex. 74, 2-(3-Cyclohexyl-3-oxo-1-propenyl)-4-cyclopentyloxy-5-methoxypyridine] | 81.6 | 32.4 | 27.7 | 5.9 | 77.9 | – | – | – | –
COCOc1cc(/C=C/C(=O)c2ccccc2)ncc1OC [Ex. 4, 5-Methoxy-4-methoxymethyloxy-2-(3-oxo-3-phenyl-1-propenyl)pyridine] | – | – | – | – | 60.2 | 86.2 | 75.2 | 67.9 | 57.4
COc1cnc(/C=C/C(=O)c2ccc([N+](=O)[O-])cc2)cc1OC [Ex. 52, 4,5-Dimethoxy-2-[3-(4-nitrophenyl)-3-oxo-1-propenyl]pyridine] | 76.1 | 48.9 | 25.6 | 11.6 | 64.2 | – | – | – | –
COc1cnc(/C=C/C(=O)c2ccccc2)cc1OCc1ccccc1 [Ex. 3, 4-Benzyloxy-5-methoxy-2-(3-oxo-3-phenyl-1-propenyl)pyridine] | – | – | – | – | 65.8 | 98.9 | 81.1 | 75.9 | 60
COc1cnc(/C=C/C(=O)c2ccccc2)cc1OCC(=O)c1ccccc1 [Ex. 47, 5-Methoxy-4-(2-oxo-2-phenylethoxy)-2-(3-oxo-3-phenyl-1-propenyl)pyridine] | – | – | – | – | 67.2 | 113 | 89.6 | 74.1 | 58.9
COc1cnc(/C=C/C(=O)C2CCCC2)cc1OC1CCCC1 [Ex. 10, 2-(3-Cyclopentyl-3-oxo-1-propenyl)-4-cyclopentyloxy-5-methoxypyridine] | – | – | – | – | 62.9 | 93.6 | 83.5 | 83.2 | 47.8
